In the Deep4Chem optical property database:

Test: solvent given as SMILES

CCCCN(CCCC)c1ccc(C#Cc2cc(C#Cc3c(F)c(F)c(F)c(F)c3F)c(C#Cc3ccc(N(CCCC)CCCC)cc3)cc2C#Cc2c(F)c(F)c(F)c(F)c2F)cc1
absorption maximum (in ClCCl): 462 nm

CC(C)(C)NC(=O)c1cccc2ccc3c4cc(F)ccc4c4ccc(F)cc4c3c12
absorption maximum (in ClCCl): 334 nm

Cc1ccc(C2=C3C=C(I)C(I)=[N+]3[B-](F)(F)n3c2cc(I)c3I)cc1
absorption maximum (in C1CCCCC1): 581 nm
absorption maximum (in CC#N): 571 nm
absorption maximum (in CCO): 577 nm
absorption maximum (in CCOC(C)=O): 573.5 nm
absorption maximum (in CO): 574.5 nm
absorption maximum (in OCC(F)(F)F): 569 nm

N#Cc1cc2nc3c(nc2cc1C#N)C1c2ccc(N(c4ccccc4)c4ccccc4)cc2C3c2ccc(N(c3ccccc3)c3ccccc3)cc21
absorption maximum (in C1CCCCC1): 428 nm
absorption maximum (in CC#N): 410 nm
absorption maximum (in Cc1ccccc1): 420 nm
absorption maximum (in ClCCl): 428 nm

O=C1C2=C3c4sccc4C=CN3C(=O)C2=C2c3sccc3C=CN12
absorption maximum (in CN(C)C=O): 605 nm
absorption maximum (in ClC(Cl)Cl): 605 nm

O=c1c2ccccc2sc2ccc(-n3c4ccccc4c4ccccc43)cc12
absorption maximum (in C1CCOC1): 388 nm
absorption maximum (in CCCCCC): 388 nm
absorption maximum (in Cc1ccccc1): 388 nm
absorption maximum (in ClC(Cl)Cl): 388 nm
absorption maximum (in ClCCl): 388 nm

C(#Cc1ccncc1)C(C#Cc1ccncc1)=Cc1ccc(C=C(C#Cc2ccncc2)C#Cc2ccncc2)cc1
absorption maximum (in ClC(Cl)Cl): 420 nm

CCOC(=O)c1c2c3c(ccc(F)c3c3cc4c(cc13)[Si](C)(C)O[Si]4(C)C)N(C)C2=O
absorption maximum (in CC#N): 380 nm

N#Cc1ccc2c(c1)C1(c3cc(C#N)ccc3-2)c2ccccc2N(c2ccccc2)c2ccccc21
absorption maximum (in Cc1ccccc1): 330.33 nm

COC(=O)c1c(-c2cc3ccccc3oc2=O)nn(-c2ccccc2)c1C(=O)OC
absorption maximum (in ClCCl): 322 nm

Cc1ccc(-n2c(-c3ccc(N(c4ccc(-c5ccc(N(c6ccc(-c7nc8c9ccccc9c9ccccc9c8n7-c7ccc(C)cc7)cc6)c6ccc(-c7nc8c9ccccc9c9ccccc9c8n7-c7ccc(C)cc7)cc6)cc5)cc4)c4ccc(-c5nc6c7ccccc7c7ccccc7c6n5-c5ccc(C)cc5)cc4)cc3)nc3c4ccccc4c4ccccc4c32)cc1
absorption maximum (in ClCCl): 376 nm

COc1ccc(-c2csc(/C(C#N)=N\Nc3ccc(C#N)cc3)n2)cc1
absorption maximum (in CC#N): 401 nm
absorption maximum (in CCO): 403 nm
absorption maximum (in CN(C)C=O): 481 nm
absorption maximum (in Cc1ccccc1): 405 nm
absorption maximum (in ClCCl): 404 nm

O=P1(c2ccccc2)c2cccc3ccc4ccc1n4c23 (stereo unspecified)
absorption maximum (in ClCCl): 412 nm

CCCCOc1c(C=C2N(C)c3ccccc3C2(C)C)c(=O)c1=O
absorption maximum (in CCO): 425 nm

c1cnc(-c2c3ccccc3c(-c3cncnc3)c3ccccc23)nc1
absorption maximum (in CCO): 391 nm
absorption maximum (in ClCCl): 394 nm

CCOC(=O)c1ccccc1-c1c2ccc(=[N+](CC)CC)cc-2oc2c1oc1cc(N)ccc12
absorption maximum (in CCO): 590 nm
absorption maximum (in ClCCl): 587 nm
absorption maximum (in O): 588 nm

CCCC1=CC2=C(c3c(C)cc(C)cc3C)c3cc(CCC)c(-c4ccc5ccc6cccc7ccc4c5c67)n3[B-](F)(F)[N+]2=C1c1ccc2ccc3cccc4ccc1c2c34
absorption maximum (in ClC(Cl)Cl): 562 nm

c1ccc(C2c3ccccc3-c3cc4c(cc32)-c2ccccc2C4c2ccccc2)cc1 (stereo unspecified)
absorption maximum (in ClCCl): 328 nm

O=Cc1ccc2c(c1)c1ccccc1n2-c1ccc(-c2ccc(-n3c4ccccc4c4cc(C=O)ccc43)cc2)cc1
absorption maximum (in ClCCl): 329 nm

F[B-]1(F)n2c(c3ccccc3c2-c2ccccc2)C=C2c3ccccc3C(c3ccccc3)=[N+]21
absorption maximum (in C1CCOC1): 640 nm
absorption maximum (in ClCCl): 634 nm

c1ccc2c(c1)CCc1ccccc1N2c1c2ccccc2c(N2c3ccccc3CCc3ccccc32)c2ccccc12
absorption maximum (in Cc1ccccc1): 456 nm

COc1ccc(C#Cc2ccc(C#Cc3ccc(P(=O)(c4ccc(C#Cc5ccc(C#Cc6ccc(OC)cc6)cc5)cc4)c4ccc(C#Cc5ccc(C#Cc6ccc(OC)cc6)cc5)cc4)cc3)cc2)cc1
absorption maximum (in C1CCCCC1): 335 nm
absorption maximum (in C1COCCO1): 336 nm
absorption maximum (in CC#N): 334 nm
absorption maximum (in CCO): 336 nm
absorption maximum (in CS(C)=O): 338 nm
absorption maximum (in ClC(Cl)Cl): 338 nm
absorption maximum (in ClCCl): 338 nm

COc1ccc(C2=N/C(=C\c3ccccc3)C(=O)O2)cc1OC
absorption maximum (in C1COCCO1): 378 nm

CC(C)(C)c1ccc2c(c1)c1cc(C(C)(C)C)cc3c1n2-c1cc(-c2ccccc2F)cc2c1B3c1cc(C(C)(C)C)cc3c4cc(C(C)(C)C)ccc4n-2c13
absorption maximum (in Cc1ccccc1): 471.56 nm

C(=C\c1ccc(N(c2ccccc2)c2ccccc2)cc1)/c1ccccc1
absorption maximum (in CC#N): 362 nm
absorption maximum (in CCCCCC): 362 nm

CN1CCCc2cc(C3=Cc4cccc[n+]4[B-](F)(F)O3)ccc21
absorption maximum (in ClC(Cl)Cl): 438 nm

O=P1(c2ccccc2)C2=C(c3ccccc31)C(c1ccccc1)(c1ccccc1)c1cc(N(c3ccccc3)c3ccccc3)ccc12 (stereo unspecified)
absorption maximum (in CC#N): 427 nm
absorption maximum (in CO): 438 nm
absorption maximum (in Cc1ccccc1): 431 nm

CC[N+](CC)=c1ccc2nc3c(cc(NCCC(=O)NC(C)C(=O)OC)c4ccccc43)oc-2c1 (stereo unspecified)
absorption maximum (in CCO): 600 nm
absorption maximum (in O): 580 nm

CCCCCCCCc1ccc(-c2c3cc(-c4cc(CCCCCCCC)c(-c5ccc(-c6sc(/C=C7\SC(N8CCCCC8)=NC7=O)cc6CCCCCCCC)s5)s4)sc3c(-c3ccc(CCCCCCCC)s3)c3cc(-c4cc(CCCCCCCC)c(-c5ccc(-c6sc(/C=C7\SC(N8CCCCC8)=NC7=O)cc6CCCCCCCC)s5)s4)sc23)s1
absorption maximum (in ClC(Cl)Cl): 475 nm

COc1ccccc1-c1nc(-c2ccccc2)c2ccccn12
absorption maximum (in C1CCCCC1): 303 nm
absorption maximum (in CC#N): 374 nm
absorption maximum (in CO): 298 nm
absorption maximum (in ClCCl): 374 nm
absorption maximum (in O): 330 nm

c1ccc(C2=C(c3ccccc3)[Si](c3ccccc3)(c3ccccc3)c3ccccc32)cc1
absorption maximum (in C1CCOC1): 330 nm

CCC1(CC)c2ccccc2-c2c1c1c(c3c2C(CC)(CC)c2cc(N(c4ccccc4)c4ccccc4)ccc2-3)C(CC)(CC)c2ccccc2-1
absorption maximum (in C1CCOC1): 356 nm
absorption maximum (in CC#N): 353 nm
absorption maximum (in CC(C)=O): 354 nm
absorption maximum (in CCCCCC): 356 nm
absorption maximum (in Cc1ccccc1): 360 nm

CCCCn1c(-c2ccc(-c3nnc(-c4ccc(-c5nc6c7ccccc7c7ccccc7c6n5CCCC)cc4)o3)cc2)nc2c3ccccc3c3ccccc3c21
absorption maximum (in ClCCl): 366 nm

CC1(C)c2ccccc2N(c2ccc(C(=O)/C=C(\O)c3ccc(N4c5ccccc5C(C)(C)c5ccccc54)cc3)cc2)c2ccccc21
absorption maximum (in Cc1ccccc1): 406 nm

O=[N+]([O-])c1ccc2nc3cc4ccccc4cc3c(-c3ccccc3)c2c1
absorption maximum (in ClCCl): 400 nm

CCn1c2ccc(/C=C/c3ccc4c(c3)c3cc(-c5nc6ccccc6s5)ccc3n4CC)cc2c2cc(-c3nc4ccccc4s3)ccc21
absorption maximum (in C1CCOC1): 361 nm
absorption maximum (in CCOC(C)=O): 360 nm

COc1cc2c(cc1-c1ccc(Cl)cc1)Cc1c3c(c4c(c1-2)-c1cc(OC)c(-c2ccc(Cl)cc2)cc1C4)C(=O)N(CCC(C)C)C3=O
absorption maximum (in C1CCOC1): 406 nm

c1ccc(N2c3ccccc3Sc3cc(-c4cccc5nc6ccccc6cc45)ccc32)cc1
absorption maximum (in C1CCOC1): 407 nm
absorption maximum (in CC#N): 407 nm
absorption maximum (in CC(C)=O): 407 nm
absorption maximum (in CC(C)OC(C)C): 407 nm
absorption maximum (in CCCCCC): 407 nm
absorption maximum (in CCCCOCCCC): 407 nm
absorption maximum (in CCN(CC)CC): 407 nm
absorption maximum (in CCOC(C)=O): 407 nm
absorption maximum (in CCOCC): 407 nm
absorption maximum (in CN(C)C=O): 407 nm
absorption maximum (in ClCCl): 407 nm

N#Cc1c(N2CCCCC2)cc(-c2cccc3ccccc23)c2c1CCc1ccccc1-2
absorption maximum (in C1CCOC1): 353 nm

C1=Cc2ccc(N(c3ccccc3)c3ccccc3)cc2C2(c3cc(N(c4ccccc4)c4ccccc4)ccc31)c1ccccc1-c1ccccc12
absorption maximum (in ClCCl): 406 nm

CCn1c(-c2ccc(-c3ccc(-c4ccc(-c5n(CC)c6ccccc6[n+]5CC)cc4)c(C)c3)cc2)[n+](CC)c2ccccc21
absorption maximum (in O): 290 nm

CN(C)c1cc(C#N)c(N(C)C)c(C#N)c1
absorption maximum (in C1CCCCC1): 387.45 nm
absorption maximum (in C1CCOC1): 390.47 nm
absorption maximum (in C1COCCO1): 391.08 nm
absorption maximum (in CC1COC(=O)O1): 394.48 nm
absorption maximum (in CC#N): 390.93 nm
absorption maximum (in CC(C)=O): 389.86 nm
absorption maximum (in CC(C)OC(C)C): 386.7 nm
absorption maximum (in CCC#N): 391.08 nm
absorption maximum (in CCC(C)C): 385.21 nm
absorption maximum (in CCCCCC): 386.7 nm
absorption maximum (in CCCCCCCCO): 393.39 nm
absorption maximum (in CCCCCOCCCCC): 388.5 nm
absorption maximum (in CCCCOC(C)=O): 389.86 nm
absorption maximum (in CCCCOCCCC): 387.6 nm
absorption maximum (in CCCOCCC): 389.86 nm
absorption maximum (in CCO): 391.7 nm
absorption maximum (in CCOC(C)=O): 389.71 nm
absorption maximum (in CCOCC): 390.62 nm
absorption maximum (in CN(C)C=O): 393.55 nm
absorption maximum (in CO): 392.31 nm
absorption maximum (in CS(C)=O): 396.83 nm
absorption maximum (in Cc1ccccc1): 395.26 nm
absorption maximum (in ClCCCl): 394.48 nm
absorption maximum (in ClCCl): 397.3 nm
absorption maximum (in N#Cc1ccccc1): 399.36 nm
absorption maximum (in O): 386.85 nm
absorption maximum (in OCC(O)CO): 403.39 nm
absorption maximum (in c1ccccc1): 395.73 nm

COc1ccc(/C=C/C2=[O+][B-](F)(F)OC(/C=C/c3ccc(OC)cc3)=C2c2ccccc2)cc1
absorption maximum (in CC#N): 500 nm
absorption maximum (in CC(C)=O): 500 nm
absorption maximum (in CCOC(C)=O): 496 nm
absorption maximum (in CCOCC): 491 nm
absorption maximum (in ClC(Cl)(Cl)Cl): 493 nm
absorption maximum (in ClCCl): 505 nm

COc1ccc(N(c2ccc(/C=C(\C)c3ccccc3)cc2)c2ccc(OC)cc2)cc1
absorption maximum (in Cc1ccccc1): 347 nm

CCC[n+]1ccc(/C=C/c2ccc(N(C)C)cc2)cc1
absorption maximum (in C1COCCO1): 463 nm
absorption maximum (in CC(C)O): 485 nm
absorption maximum (in CCCCO): 490 nm
absorption maximum (in CCCO): 487 nm
absorption maximum (in CCO): 484 nm
absorption maximum (in CO): 479 nm
absorption maximum (in CS(C)=O): 476 nm
absorption maximum (in ClC(Cl)Cl): 496 nm
absorption maximum (in ClCCl): 513 nm
absorption maximum (in c1ccccc1): 477 nm
